Patent US20220118051A1, “SELF-ASSEMBLING VEGF NANOPARTICLES” (Northwestern University, priority 2018, published 2022)
Entries after “also recorded” stand apart in the source; their conditions may differ. C16 = N-terminal C16 alkyl chain

B1: rVEGF: mouse recombinant VEGF (R&D systems) (protein)
chain: APTTEGEQKSHEVIKFMDVYQRSYCRPIETLVDIFQEYPDEIEYIFKPSCVPLMRCAGCCNDEALECVPTSESNITMQIMRIKPHQSQHIGEMSFLQHSRCECRPKKDRTKPENHCEPCSERRKHLFVQDPQTCKCSCKNTDSRCKARQLELNERTCRCDKPRR

Columns and labels:
[1] = tested on: SCA1 knock-in mice (SCA1154Q/2Q); assay: Rotating rod assay (accelerating rotarod); type: in vivo, mouse; settings: SCA1 mice at 26 weeks; for rotarod performance: after two-week ICV delivery from 24 weeks, compared to aCSF-treated SCA1 mice
Method: (§1) To test for behavioral and pathological improvement mice were treated for a two-week period starting at 24 weeks. Nano-VEGF, mouse rVEGF (R&D systems, Minneapolis, Minn.) or artificial CSF (sham controls) were delivered using the intracerebroventricular route (into the right lateral ventricle with stereotaxic coordinates: A/P −0.5 mm, M/L −1.1 mm, D/V −2.5 mm). using osmotic ALZET pumps; model #1002, Durect) (Cvetanovic et al., 2011; herein incorporated by reference in its entirety). Behavioral assays were performed at 26 weeks; while biochemical and histochemical analysis was performed at 27 weeks (after euthanasia). For electrophysiological experiments, we used 8-10 week-old mice for pump placement (with a similar two-week treatment regimen) since it is difficult to generate good electrophysiological traces from older mice.
Rotating Rod Assay: 26-week-old mice (post-treatment) were placed on a rotating rod apparatus (Ugo Basile) that accelerates linearly from 4 to 40 rotations per minute over a 5-minute period. Mice were subjected to four trials per day for four consecutive days, each trial lasting to a maximum of ten minutes, with at least ten minutes of rest between each trial. The average performances for each day were plotted, and statistical differences between the different groups were analyzed using repeated measures two-way ANOVA (followed by Tukey's honest significant difference post-hoc test for multiple comparisons). All statistical analyses here and elsewhere were performed using GraphPad Prism 6 software (GraphPad Software, La Jolla Calif. USA). Data were considered significant for p<0.05. Data are expressed as mean±SEM.

[2] = tested on: SCA1 knock-in mice (SCA1154Q/2Q); assay: Gait analysis on transparent treadmill (Digigait); type: in vivo, mouse; settings: tested up to 24 cm/s, untreated SCA1 mice barely walk at 5 cm/s
Method: as §1
Gait Analysis: Mice were placed on a transparent treadmill belt connected to a high-speed digital video camera (Digigait© system; Mouse Specifics, Inc.). The speed of the treadmill was set to the minimum of 5 cm/s up to maximum tolerated speed (maxed out at 24 cm/s). The performance of mice on the treadmill at different speeds was recorded with digital video camera.

Purkinje cells [3] = assay: Calbindin staining, Purkinje cell dendritic length; type: in vivo, mouse; settings: SCA1 mice at 27 weeks; vs aCSF
Method: as §1
(§2) 27-week-old mice (post treatment and post behavioral analysis) were anesthetized by isoflurane inhalation and were perfused with ice-cold PBS, followed by 4% paraformaldehyde in PBS (Israeli et al., 2016; herein incorporated by reference in its entirety). The brains were post-fixed in 4% paraformaldehyde for 24 hrs, followed by tissue saturation in 30% sucrose for 48-72 hrs. […] After three washes in TBST, signals were detected using according secondary antibodies for 2 hours at RT. […]

VEGFR2 = molecular target: T1, VEGFR2 (Mus musculus, UniProt P35918); assay: Phospho-VEGFR2 ELISA on cerebellar lysates; type: in vivo
T1 construct: Cerebellar lysates were prepared in 2× cell lysis buffer; from tissue; host or cells: mouse cerebellum (SCA1 154Q/2Q knock-in and wild-type mice)
Method: as §1
Phospho-VEGFR2 ELISA was performed using PathScan® Phospho-VEGFR2 (Ty1175) Sandwich ELISA kit (7335, Cell Signaling), according to manufacturer's instruction. Cerebellar lysates were prepared in 2× cell lysis buffer, and undiluted tissue lysates were incubated in 96-well plates coated with phosphor-VEGFR2 primary antibody overnight at 4° C. Wells were washed several times, and detection antibody was added to the well and incubated for 1 hr at 37C and with HRP-conjugated secondary antibody for 30 min at 37° C. Signals were detected with 3,3′,5,5′-Tetramethylbenzidine (TMB) substrate and sulfuric acid were added to stop the reaction. Absorbance was read at 450 nm within 30 min after stopping the reaction.

[4] = tested on: cerebellar microvasculature; assay: Collagen IV immunostaining of cerebellar microvessels (AngioTool); type: in vivo, mouse; settings: SCA1 mice cerebella
Method: as §1, §2

[5] = tested on: ZO-1, Claudin-5 and Occludin; assay: Western blot of tight junction proteins in cerebella; type: in vivo, mouse; settings: SCA1 mice cerebella, normalized to actin
Method: as §1
(§3) Proteins were extracted from cerebellar tissues using radioimmunoprecipitation assay (RIPA) buffer (50 mM Tris-HCl, pH 8.0, 150 mM NaCl, 1 mM EDTA, 10 mM NaF, 0.5% Sodium deoxycholate, 1% Triton-X 100, 0.1% SDS, protease inhibitors (Sigma)), and resolved on 7.5% SDS-PAGE gel. Densitometric analysis was evaluated using ImageJ 1.46r software (National Institutes of Health, Bethesda, Md., USA). […]

Ataxin-1 = assay: Western blot of Ataxin-1; type: in vivo, mouse; settings: SCA1 mice, two weeks of treatment
Method: as §1, §3

Ataxin-1 inclusions = assay: Immunohistochemistry of Ataxin-1 inclusions in hippocampal CA1; type: in vivo, mouse; settings: SCA1 mice, 27 weeks; vs aCSF
Method: as §1
To quantify the percentage of cells with ataxin-1 inclusions in the CA1 regions of the hippocampus, brain sections were stained for ataxin-1 (mouse anti-Ataxin-1 11NQ clone N76/3; NeuroMab, 1:1000) and counterstained with DAPI. The number of cells with ataxin-1 inclusions in each defined region of interest was normalized to the number of cells stained with DAPI only. Statistical analysis was performed using unpaired t test. […]

Purkinje cells [6] = assay: Electrophysiological slice recordings, cell-attached, spontaneous firing; type: in vivo, mouse; settings: SCA1 mice treated from 8-10 weeks for two weeks; vs vehicle (aCSF)
Method: as §1
Mice were anesthetized with isoflurane and killed by decapitation. The brains were removed from the skull and placed in warm (30-33° C.) artificial cerebrospinal fluid (ACSF) containing (in mM): 125 NaCl, 25 NaHCO3, 2.5 KCl, 1.25 NaH2PO4, 0.5 CaCl2), 7 MgCl2, 75 sucrose and 25 glucose, equilibrated with 95% O2 and 5% CO2 (pH 7.4). 300 μm thick para-sagittal cerebellar slices were cut using a vibratome (Leica VT1200) and stored in the same solution at 34° C. for 15 min and then at 20-22° C. until used (<6 hours). […] Cells were recorded in the I-Clamp fast mode. […]

[7] = cited from earlier work
[8] = cited from earlier work; remark: listed apart in the source
[9] = SCA1 mice, cerebellar lysates, vs aCSF

T1 sequence (P35918 20-1345): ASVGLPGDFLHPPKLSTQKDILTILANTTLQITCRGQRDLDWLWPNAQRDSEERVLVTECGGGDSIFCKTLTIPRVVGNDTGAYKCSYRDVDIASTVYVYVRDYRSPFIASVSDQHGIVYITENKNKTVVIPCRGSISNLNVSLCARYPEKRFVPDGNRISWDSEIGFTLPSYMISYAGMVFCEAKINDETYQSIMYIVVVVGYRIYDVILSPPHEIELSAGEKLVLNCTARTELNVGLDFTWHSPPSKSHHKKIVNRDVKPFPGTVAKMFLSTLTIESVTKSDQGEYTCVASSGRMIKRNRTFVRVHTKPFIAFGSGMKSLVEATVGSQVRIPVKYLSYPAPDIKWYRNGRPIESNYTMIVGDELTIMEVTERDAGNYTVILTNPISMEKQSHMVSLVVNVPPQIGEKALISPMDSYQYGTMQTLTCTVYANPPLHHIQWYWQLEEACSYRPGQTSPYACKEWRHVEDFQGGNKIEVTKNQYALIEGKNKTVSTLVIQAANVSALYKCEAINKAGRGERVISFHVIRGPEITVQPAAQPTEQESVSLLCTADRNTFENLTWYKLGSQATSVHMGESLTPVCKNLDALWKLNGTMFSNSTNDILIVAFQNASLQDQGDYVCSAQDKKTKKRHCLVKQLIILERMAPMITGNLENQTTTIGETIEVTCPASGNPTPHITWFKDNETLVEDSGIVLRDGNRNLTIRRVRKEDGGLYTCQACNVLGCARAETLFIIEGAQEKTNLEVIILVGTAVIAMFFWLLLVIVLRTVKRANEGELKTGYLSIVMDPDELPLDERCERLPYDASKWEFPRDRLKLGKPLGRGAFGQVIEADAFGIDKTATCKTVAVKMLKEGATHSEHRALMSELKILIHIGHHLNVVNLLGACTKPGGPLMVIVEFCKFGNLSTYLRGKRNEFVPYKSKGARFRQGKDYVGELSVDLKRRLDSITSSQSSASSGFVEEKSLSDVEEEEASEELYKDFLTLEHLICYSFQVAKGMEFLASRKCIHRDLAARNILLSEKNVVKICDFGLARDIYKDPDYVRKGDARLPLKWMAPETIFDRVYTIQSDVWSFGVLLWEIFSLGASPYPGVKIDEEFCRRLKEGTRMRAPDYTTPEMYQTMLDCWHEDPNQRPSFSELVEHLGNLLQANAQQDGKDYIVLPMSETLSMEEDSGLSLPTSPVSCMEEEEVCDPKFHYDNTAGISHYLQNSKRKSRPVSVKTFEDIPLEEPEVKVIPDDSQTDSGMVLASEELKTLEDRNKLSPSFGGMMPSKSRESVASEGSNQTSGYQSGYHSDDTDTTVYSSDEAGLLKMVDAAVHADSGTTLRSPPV

Row | Molecule | rotarod performance [1] | rotarod performance ([1]; listed as Nano-VEGF) | rotarod improvement, nano-VEGF compared with rVEGF ([1]; nano-VEGF 20.0 μg vs rVEGF 2.5 μg over two weeks ICV) | treadmill speed at which treated mice could walk and even run [2] | Purkinje cell dendritic length (calbindin staining) (Purkinje cells [3]) | VEGFR2 phosphorylation level (VEGFR2; [9]) | VEGFR2 phosphorylation level (VEGFR2; wild-type (WT) mice) | average vessel length, improvement compared with rVEGF [4] | branching index, improvement compared with rVEGF [4] | levels of capillary proteins (tight junction markers ZO-1, Claudin-4, and Occludin) [5] | Ataxin-1 protein levels (Ataxin-1) | percentage of cells with Ataxin-1 inclusions in the CA1 of hippocampi (Ataxin-1 inclusions) | spontaneous firing of Purkinje cells (Purkinje cells [6]) | bioequivalence relative to rVEGF ([7]; functional studies in mouse hind-limb ischemia model, basis for dose 20.0 μg vs 2.5 μg) | time detectable post-injection ([7]; ischemic limb model) | retention of particles in tissue ([7]; mouse hind-limb ischemia model) | half-life in vivo [8]
1 | C16-V2A2K3G-KLTWQELYQLKYKGI (C16-VVAAKKKGKLTWQELYQLKYKGI-NH2) [nano-VEGF, VEGF peptide (mimics VEGF residues 17-25) linked at N terminus to K3G, V2A2 β-domain and C16 alkyl chain; self-assembling peptide amphiphile] | performed markedly better than control SCA1 mice treated with artificial CSF | improved rotarod performance | tended to produce a greater improvement than rVEGF; also recorded: more effective | 17 cm/s | significantly increase dendritic length | rescued | did not upregulate phosphorylation of VEGFR2 | greater improvement | greater improvement | more effective than rVEGF | does not alter Ataxin-1 levels | does not differ from that of aCSF-treated mice | significantly faster and more regular firing; also recorded: increases firing in Purkinje cells | approximately eight times that of rVEGF | up to 4 weeks | retained in tissue even four weeks after delivery | –
2 | B1 | performed markedly better than control SCA1 mice treated with artificial CSF; also recorded: improved rotarod performance | – | – | 17 cm/s | significantly increase dendritic length | rescued | did not upregulate phosphorylation of VEGFR2 | – | – | – | – | – | – | – | – | – | about 30 minutes
